Here are results for 25 substances from paper PMC5458078, “Global mapping of CARM1 substrates defines enzyme specificity and substrate recognition” (Nature Communications, 2017).

The test system of experiment [1] is MCF7 cells. Description: Quantitative nanoLC-MS/MS (TMT) of ADMA-containing peptides, CARM1 KO vs parental. The format is cell-based, human. Further details: Fold change KO/WT: scale not given here.
Experiment [2] concerns MCF7 CARM1 KO cells. Description: Quantitative MS of ADMA-containing peptides in MCF7 CARM1 KO cells expressing CARM1 28-608 or CARM1 140-608, and in CARM1 KO. The format is cell-based, human.
[3] abbreviates: MCF7 CARM1 knockout vs wild type, 3 biological replicates each, values are on log2 scale.
The mark [4] stands for this setting: MCF7, CARM1 KO vs WT, three biological replicates each.
Where [5] appears, read: CARM1 140-608 vs WT, mean of 3 replicates, log2.
The mark [6] stands for this setting: KO vs WT, mean of 3 replicates, log2.
The mark [7] stands for this setting: MCF7, CARM1 knockout vs wild type, n = 3 each.
[8] abbreviates: mean, CARM1 140-608 versus WT (log2 scale).
Where [9] appears, read: mean, CARM1 KO versus WT (log2 scale).
Where [10] appears, read: ADMA-containing peptide, CARM1 knockout (KO) vs wild type (WT) MCF7 cells, 6-plex TMT experiment #1, three biological replicates each, sheet "MCF7".
Setting [11] is: CARM1 140-608 versus WT, mean of three replicates (log2).
Setting [12] is: KO versus WT, mean of three replicates (log2).
Setting [13] is: ADMA-containing peptide, MCF7, CARM1 knockout (KO1-3) vs wild type (WT1-3), TMT 6-plex experiment #1.
The mark [14] stands for this setting: CARM1 140-608 versus WT, difference of mean log2 values.
Where [15] appears, read: CARM1 KO versus WT, difference of mean log2 values.
The mark [16] stands for this setting: ratio on log2 scale, mean of 3 replicates.
Where [17] appears, read: MCF7, CARM1 KO (KO1-KO3) vs wild type (WT1-WT3).
Setting [18] is: log2 scale ratio, mean of n = 3.

Where two headings read alike, the source gives them in different places.

Turning to ISSSSFSrVGSSNFR, the “Fold change KO/WT” value in experiment [1] (setting [3]) is recorded as -3.151. In experiment [2], the “CARM1 140-608/WT” value was -2.763 and the KO/WT is recorded as -3.151.

Consider “TATVTIrPNTSGSGGTTSNSQVITGPQIrPGMTVIrTPLQQSTLGK”, for which the “Fold change KO/WT” value in experiment [1] (setting [4]) is -2.17. The “CARM1 140-608/WT” value in experiment [2] (setting [5]) is reported as 1.9774. This substance also had a KO/WT in experiment [2] (setting [6]) of -1.958.

For RPAQSVNrGGMTR, the “Fold change KO/WT” value in experiment [1] (setting [4]) is listed as 0.2083. The “CARM1 140-608/WT” value in experiment [2] (setting [5]) was determined as 0.0581. The same substance registered a KO/WT in experiment [2] (setting [6]) of 0.3659.

Turning to KLFIGGLSFETTDDSLr, the “Fold change KO/WT” value in experiment [1] (setting [7]) was -0.1026. The “CARM1 140-608/WT” value in experiment [2] (setting [8]) is -0.2797. In experiment [2] (setting [9]), this substance came in with a KO/WT of 0.2164.

Turning to LLALSGPGGGrGrGSLLLR, the “Fold change KO/WT” value in experiment [1] (setting [10]) is listed as 0.2339. In experiment [2] (setting [11]), the “CARM1 140-608/WT” value is given as -0.3383. The substance further yielded a KO/WT in experiment [2] (setting [12]) of -0.09674.

In the case of QrGVSHAMGGrGGINrGNIN, the “Fold change KO/WT” value in experiment [1] (setting [13]) was 0.1671. Moreover, the “CARM1 140-608/WT” value in experiment [2] (setting [14]) is reported as -0.01925. Also, in experiment [2] (setting [15]), the KO/WT was determined as 0.2719.

LQGLQGSGGrGGGLR: the “Fold change KO/WT” value in experiment [1] (setting [3]) is -0.266. The “CARM1 140-608/WT” value in experiment [2] (setting [8]) is 0.05748. This substance also came in with a KO/WT in experiment [2] (setting [9]) of -0.4598.

Regarding “KPPNQSLPLQPFQLAFGHQVNrQVFrQGPPPPNPVAAFPPQK”, in experiment [1] (setting [7]), the “Fold change KO/WT” value was -3.229. Also, in experiment [2] (setting [16]), the “CARM1 140-608/WT” value is listed as -2.162 and the KO/WT is reported as -3.229.

For the substance APDEPQQAQVPHVWGWEVAGAPALrLQK, the “Fold change KO/WT” value in experiment [1] (setting [10]) is reported as -2.912. Further, the “CARM1 140-608/WT” value in experiment [2] (difference of log2 means, CARM1 140-608 vs WT) was -2.552. In addition, the KO/WT in experiment [2] (difference of log2 means, KO vs WT) was -3.114.

LAQNAArIPGIPrHSGPQYSMMQPHLQR: in experiment [1] (CARM1 KO vs wild type MCF7 cells, 3 biological replicates each), the “Fold change KO/WT” value is -2.189. Further, in experiment [2] (setting [14]), the “CARM1 140-608/WT” value is -0.4462. The same substance gave a KO/WT in experiment [2] (setting [15]) of -2.068.

As for “GIPLDAAAAYYLPrHLAPNPTYPHLYPPYLIrGYPDTAALENR”, the “Fold change KO/WT” value in experiment [1] (setting [10]) is listed as -1.386. Moreover, the “CARM1 140-608/WT” value in experiment [2] (setting [11]) was -0.9413. This substance returned a KO/WT in experiment [2] (setting [12]) of -1.386.

Consider QLrMQLQQrLQGQQFLNQSrQALELK, for which, in experiment [1] (setting [10]), the “Fold change KO/WT” value is -3.961. Besides, the “CARM1 140-608/WT” value in experiment [2] (setting [11]) is reported as -3.52. For the same substance, in experiment [2] (setting [12]), the KO/WT is -6.321.

With TRNPFLTGLSAPSPTNPFGAGEPGrPTLNQMR, the “Fold change KO/WT” value in experiment [1] (setting [7]) is recorded as -1.766. Also, in experiment [2] (setting [16]), the “CARM1 140-608/WT” value is reported as -1.179 and the KO/WT is recorded as -1.766.

RPPPEHFrRPPPEHFR: the “Fold change KO/WT” value in experiment [1] (setting [17]) was -0.5356. Moreover, the “CARM1 140-608/WT” value in experiment [2] (setting [11]) was -0.8789. In experiment [2] (setting [12]), this substance registered a KO/WT of -0.5356.

As to “MGTPVPRPPQDMGQIGVrTPLGPrVAAPVGPVGPTPTVLPMGAPVPRPR”, in experiment [1] (setting [17]), the “Fold change KO/WT” value was -3.424. Besides, the “CARM1 140-608/WT” value in experiment [2] (CARM1 140-608 vs WT, mean of 3 replicates (log2 scale)) is on record as -1.595. For the same substance, the KO/WT in experiment [2] (KO vs WT, mean of 3 replicates (log2 scale)) was -3.449.

Take GGrGrGGSGGGGGGGGGGYNR: the “Fold change KO/WT” value in experiment [1] (setting [7]) is recorded as -0.05268. Besides, the “CARM1 140-608/WT” value in experiment [2] (setting [8]) stood at 0.1837. In experiment [2] (setting [9]), the KO/WT was 0.3356.

With GrGSLLLR, the “Fold change KO/WT” value in experiment [1] (setting [10]) worked out at 1.1394. Moreover, in experiment [2] (setting [11]), the “CARM1 140-608/WT” value came to 0.6421. In addition, the KO/WT in experiment [2] (setting [12]) is 1.1394.

With VELPTCMYrLPNVHGR, the “Fold change KO/WT” value in experiment [1] (setting [4]) is reported as -2.379. The “CARM1 140-608/WT” value in experiment [2] (setting [5]) is on record as -1.403. The substance also came in with a KO/WT in experiment [2] (setting [6]) of -3.7411.

Regarding GSRLPLALPPASQGCSSGGGGGGGGGSSAGGSGNSrPPR, the “Fold change KO/WT” value in experiment [1] (setting [3]) is given as -0.9721. The “CARM1 140-608/WT” value in experiment [2] (setting [8]) is on record as -0.7656. The substance also showed a KO/WT in experiment [2] (setting [9]) of -0.9721.

GILPMNPrNMMNHSQVGQGIGIPSR: the “Fold change KO/WT” value in experiment [1] (setting [7]) is on record as -1.864. In addition, in experiment [2] (setting [16]), the “CARM1 140-608/WT” value was -1.1659 and the KO/WT is on record as -1.864.

Take ELSHPPLYrLPLLENAETPQ: the “Fold change KO/WT” value in experiment [1] (setting [13]) is -3.498. Besides, in experiment [2] (setting [18]), the “CARM1 140-608/WT” value was -1.659 and the KO/WT is listed as -3.498.

GMQHFPPGPGGPMPGPHGGPGGPVGPrLLGPPPPPR: the “Fold change KO/WT” value in experiment [1] (setting [10]) was -1.283. Further, the “CARM1 140-608/WT” value in experiment [2] (setting [11]) is on record as -0.7184. Moreover, the KO/WT in experiment [2] (setting [12]) is -1.425.

DFAFYNPrLQGK: the “Fold change KO/WT” value in experiment [1] (setting [4]) was -2.168. Also, in experiment [2] (setting [5]), the “CARM1 140-608/WT” value is -2.071. The substance also yielded a KO/WT in experiment [2] (setting [6]) of -2.382.

Regarding “LAMDFGGAGAAQQGLTDSCQSGGVPTAVQNLAPrAAVAAAAPrAVAPYK”, in experiment [1] (setting [10]), the “Fold change KO/WT” value is given as -4.352. Further, the “CARM1 140-608/WT” value in experiment [2] (setting [11]) was -1.57. The substance also had a KO/WT in experiment [2] (setting [12]) of -4.352.

VPrFSSLSSCNPPAMATSAEK: the “Fold change KO/WT” value in experiment [1] (setting [7]) is on record as -1.804. Besides, in experiment [2] (setting [8]), the “CARM1 140-608/WT” value is on record as -1.357. In addition, the KO/WT in experiment [2] (setting [9]) was -1.804.
